This note sets out measurements from patent publication USRE46511E1, “Fused pyrimidine derivatives for inhibition of tyrosine kinase activity” (HANMI SCIENCE CO., LTD., priority 2010, dated 2017).

In test [1] the test system is HCC827 (EGFR DelE746_A750). In words: Inhibition test for growth of cancer cell expressing EGFR (SRB), HCC827.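 Note: cells in 96-well plates exposed to tenfold serial dilutions from 100 µM, fixed with trichloroacetic acid, SRB-stained, absorbance read at 540 nm, DMSO under 1%.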 Type of test: cell-based. The following applies: Homo sapiens, HCC827, 72 h, HCC827 cells, 72 hours, SRB; read-out: GI50 HCC827 EGFR DelE746_A750.
Description: A431 cell line was incubated in a high-glucose DMEM (Dulbecco's Modified Eagle's Medium) supplemented with 10% fetal bovine serum (FBS) and 1% penicillin/streptomycin (Gibco BRL), and HCC827 and NCI-H1975 cell lines were incubated in an RPMI medium supplemented with 10% FBS, 1% penicillin/streptomycin and 1% sodium pyruvate.
The cancer cell lines stored in a liquid nitrogen tank were each quickly thawed at 37° C., and centrifuged to remove the medium. The resulting cell pellet was mixed with a culture medium, incubated in a culture flask at 37° C. under 5% CO2 for 2 to 3 days, and the medium was removed. The remaining cells were washed with DPBS (Dulbecco's Phosphate Buffered Saline) and separated from the flask by using Tripsin-EDTA. […] 100 μl of the diluted cell solution was added to each well of a 96-well plate, and incubated at 37° C. under 5% CO2 for 1 day.
In case that the test compound was not soluble in DMSO, 1% HCl was added thereto and treated in a 40° C. water bath for 30 mins until a complete dissolution was attained. The DMSO solution containing test compound was diluted with a culture medium to a final concentration of 100 μM, and then diluted 10 times serially to 10^−6 μM (a final concentration of DMSO was less than 1%).
The medium was removed from each well of the 96-well plate. And then, 100 μl of a test compound solution was added to each well holding the cultured cells, and the plate was incubated at 37° C. under 5% CO2 for 72 hours (except that NCI-H1975 cells were incubated for 48 hours). After removing the medium from the plate, 50 μA of 10% trichloroacetic acid was added to each well, and the plate was kept at 4° C. for 1 hour to fix the cells to the bottom of the plate. The added 10% trichloroacetic acid solution was removed from each well, the plate was dried, 100 μA of an SRB (Sulforhodamine-B) dye solution at a concentration of 0.4% dissolved in 1% acetic acid was added thereto, and the resulting mixture was reacted for 10 mins at room temperature. After removing the dye solution, the plate was washed with water, and well dried. When the dye solution was not effectively removed by water, 1% acetic acid was used. 150 μA of 10 mM trisma base was added to each well, and the absorbance at 540 nm wavelength was determined with a microplate reader.
Test [2] relates to NCI-H1975 (EGFR L858R/T790M). The test can be described thus: Inhibition test for growth of cancer cell expressing EGFR (MTS), NCI-H1975. Type of test: cell-based. The following applies: Homo sapiens; NCI-H1975 cells, 48 hours, MTS; read-out: GI50 NCI-H1975 EGFR L858R/T790M.

Bounds are passed on as bounds.

Take `C=CC(=O)Nc1cccc(Oc2nc(Nc3ccc(OCCOC)cc3)nc3ccsc23)c1` [Example 61]: the GI50 in test [1] is 0.05 to 0.1 µM; in test [2] it was below 0.05 µM.

As to `C=CC(=O)Nc1cccc(Nc2nc(Nc3ccc(CCN4CCN(C)CC4)cc3)nc3ccsc23)c1` [Example 214], the GI50 in test [1] is 0.05 to 0.1 µM; in test [2], below 0.05 µM.

With `C=CC(=O)Nc1cccc(Nc2nc(Nc3ccc(OCCN(C)C)cc3)nc3ccsc23)c1` [Example 211], the GI50 in test [1] and in test [2] was below 0.05 µM throughout.

In the case of `C=CC(=O)Nc1cccc(Oc2nc(Nc3ccc(NC(=O)N4CCN(C)CC4)c(F)c3)nc3ccsc23)c1` [Example 201], the values for the GI50 in test [1] and in test [2] were below 0.05 µM and 0.05 to 0.1 µM, respectively.

Take `C=CC(=O)Nc1cccc(Oc2nc(Nc3ccc(N4CCC(C(=O)N(C)C)CC4)cc3)nc3ccsc23)c1` [Example 45]: the GI50 in test [1] and in test [2] was below 0.05 µM throughout.

Take `C=CC(=O)Nc1cccc(Nc2nc(Nc3ccc(C4CCN(C)CC4)c(F)c3)nc3ccsc23)c1` [Example 216]: the GI50 in test [1] and in test [2] was below 0.05 µM each time.

Regarding `C=CC(=O)Nc1cccc(Oc2nc(Nc3ccc(N4CCN(CCOC)CC4)cc3)nc3ccsc23)c1` [Example 17], the GI50 in test [1] and in test [2] was below 0.05 µM throughout.

For `C=CC(=O)Nc1cccc(Nc2nc(Nc3ccc(N4CCN(C(C)C)CC4)cc3)nc3ccsc23)c1` [Example 208], the GI50 in test [1] and in test [2] was below 0.05 µM in each case.

With `C=CC(=O)Nc1cccc(Oc2nc(Nc3ccc(N4CCN(C)CC4)c(F)c3OC)nc3ccsc23)c1` [Example 6], the values for the GI50 in test [1] and in test [2] were 0.05 to 0.1 µM and below 0.05 µM, respectively.

For the molecule `C=CC(=O)Nc1cccc(Oc2nc(Nc3ccc(C(=O)N(C)C)c(Cl)c3)nc3ccsc23)c1` [Example 143], the GI50 was 0.05 to 0.1 µM in test [1] and below 0.05 µM in test [2].

Consider `C=CC(=O)Nc1cccc(Oc2nc(Nc3ccc(N4CCN(S(=O)(=O)CC)CC4)c(F)c3)nc3ccsc23)c1` [Example 121], for which the GI50 is 0.05 to 0.1 µM in test [1] and below 0.05 µM in test [2].

As to `C=CC(=O)Nc1cccc(Oc2nc(Nc3ccc(CCS(C)(=O)=O)cc3)nc3ccsc23)c1` [Example 97], the GI50 is 0.05 to 0.1 µM in test [1] and below 0.05 µM in test [2].

For the molecule `C=CC(=O)Nc1cccc(Oc2nc(Nc3ccc(N4CCC(N5CCCC5)CC4)c(F)c3)nc3ccsc23)c1` [Example 124], the GI50 in test [1] and in test [2] was below 0.05 µM each time.

On to `C=CC(=O)Nc1cccc(Oc2nc(Nc3ccc(N4CCN(CC(F)F)CC4)cc3)nc3ccsc23)c1` [Example 15], for which the GI50 in test [1] and in test [2] was below 0.05 µM each time.

Consider `C=CC(=O)Nc1cccc(Oc2nc(Nc3ccc(C(=O)NC4CCN(C)CC4)c(OC)c3)nc3ccsc23)c1` [Example 118], for which the GI50 in test [1] is below 0.05 µM; in test [2], 0.05 to 0.1 µM.

Turning to `C=CC(=O)Nc1cccc(Oc2nc(Nc3ccc(C4CCN(C)CC4)c(F)c3)nc3ccoc23)c1` [Example 235], the GI50 in test [1] and in test [2] was below 0.05 µM throughout.

Consider `C=CC(=O)Nc1cccc(Oc2nc(Nc3ccc(O)cc3)nc3ccsc23)c1` [Example 60], for which the GI50 in test [1] and in test [2] was 0.1 to 1 µM in each case.

`C=CC(=O)Nc1cccc(Nc2nc(Nc3ccc(C4CCN(C)CC4)cc3)nc3ccsc23)c1` [Example 209]: the GI50 in test [1] and in test [2] was below 0.05 µM in each case.

With `C=CC(=O)Nc1cccc(Oc2nc(Nc3ccc(CN4CCN(C5CCN(C)CC5)CC4)c(Cl)c3)nc3ccsc23)c1` [Example 202], the GI50 in test [1] is 0.05 to 0.1 µM; in test [2] it was below 0.05 µM.

Regarding `C=CC(=O)Nc1cccc(Oc2nc(Nc3ccc4c(c3)CCCC(=O)N4C)nc3ccsc23)c1` [Example 108], the GI50 in test [1] and in test [2] was 0.05 to 0.1 µM each time.

For `C=CC(=O)Nc1cccc(Oc2nc(Nc3ccc(C(=O)NCCN4CCCC4)cc3OC)nc3ccsc23)c1` [Example 117], the GI50 in test [1] is below 0.05 µM; in test [2], 0.05 to 0.1 µM.

For `C=CC(=O)Nc1cccc(Nc2nc(Nc3ccc(OCCCN(C)C)cc3)nc3ccsc23)c1` [Example 212], the GI50 in test [1] and in test [2] was 0.05 to 0.1 µM throughout.
